The text below walks through data of ChEMBL document CHEMBL5465560, “Selectivity Literature for EUbOPEN Chemogenomic Library” (2024).

The target of experiment [1] is Tyrosine-protein kinase ABL1 (Homo sapiens, UniProt P00519). Nature of the experiment: Selectivity interaction (TR-FRET binding assay) EUB0000644a ABL1. In general terms: TR-FRET usually uses a lanthanide donor and a delayed reading to cut background.
The target in experiment [2] is ALK tyrosine kinase receptor (Homo sapiens, UniProt Q9UM73). Nature of the experiment: Selectivity interaction (TR-FRET binding assay) EUB0000644a ALK.
The target of the next experiment is Aurora kinase B (Homo sapiens, UniProt Q96GD4). Nature of the experiment: Selectivity interaction (TR-FRET binding assay) EUB0000644a AURKB.
The target of experiment [3] is Tyrosine-protein kinase BTK (Homo sapiens, UniProt Q06187). Nature of the experiment: Selectivity interaction (TR-FRET binding assay) EUB0000644a BTK.
The target of experiment [4] is Cyclin-dependent kinase 11A (Homo sapiens, UniProt Q9UQ88). Nature of the experiment: Selectivity interaction (TR-FRET binding assay) EUB0000644a CDK11A.
For experiment [5], the target named is Cyclin-dependent kinase 2 (Homo sapiens, UniProt P24941). Nature of the experiment: Selectivity interaction (TR-FRET binding assay) EUB0000644a CDK2.
The target in a further experiment is CDK8/Cyclin C (Homo sapiens, UniProt P49336). Nature of the experiment: Selectivity interaction (TR-FRET binding assay) EUB0000644a CDK8. Type of experiment: protein-complex assay.
The target of another experiment is CDK7/Cyclin H/MNAT1 (Homo sapiens, UniProt P50613). Nature of the experiment: Selectivity interaction (TR-FRET binding assay) EUB0000644a […]. Type of experiment: protein-complex assay.
Experiment [6] addresses Epidermal growth factor receptor (Homo sapiens, UniProt P00533). Nature of the experiment: Selectivity interaction (TR-FRET binding assay) EUB0000644a EGFR.
Experiment [7] has as its target G protein-coupled receptor kinase 5 (Homo sapiens, UniProt P34947). Nature of the experiment: Selectivity interaction (TR-FRET binding assay) EUB0000644a GRK5.
For experiment [8], the target named is Vascular endothelial growth factor receptor 2 (Homo sapiens, UniProt P35968). Nature of the experiment: Selectivity interaction (TR-FRET binding assay) EUB0000644a KDR.
The target of experiment [9] is Tyrosine-protein kinase Lck (Homo sapiens, UniProt P06239). Nature of the experiment: Selectivity interaction (TR-FRET binding assay) EUB0000644a LCK.
Experiment [10] has as its target Mitogen-activated protein kinase 14 (Homo sapiens, UniProt Q16539). Nature of the experiment: Selectivity interaction (TR-FRET binding assay) EUB0000644a MAPK14.
Experiment [11] concerns the target Mitogen-activated protein kinase 8 (Homo sapiens, UniProt P45983). Nature of the experiment: Selectivity interaction (TR-FRET binding assay) EUB0000644a MAPK8.
Experiment [12] has as its target Hepatocyte growth factor receptor (Homo sapiens, UniProt P08581). Nature of the experiment: Selectivity interaction (TR-FRET binding assay) EUB0000644a MET.
The target in experiment [13] is 5'-AMP-activated protein kinase catalytic subunit alpha-1 (Homo sapiens, UniProt Q13131). Nature of the experiment: Selectivity interaction (TR-FRET binding assay) EUB0000644a PRKAA1.
Experiment [14] has as its target cAMP-dependent protein kinase catalytic subunit alpha (Homo sapiens, UniProt P17612). Nature of the experiment: Selectivity interaction (TR-FRET binding assay) EUB0000644a PRKACA.
The target in experiment [15] is Ribosomal protein S6 kinase alpha-3 (Homo sapiens, UniProt P51812). Nature of the experiment: Selectivity interaction (TR-FRET binding assay) EUB0000644a RPS6KA3.
Experiment [16] concerns the target Tyrosine-protein kinase SYK (Homo sapiens, UniProt P43405). Nature of the experiment: Selectivity interaction (TR-FRET binding assay) EUB0000644a SYK.

Sequence of Tyrosine-protein kinase ABL1 (P00519 whole entry): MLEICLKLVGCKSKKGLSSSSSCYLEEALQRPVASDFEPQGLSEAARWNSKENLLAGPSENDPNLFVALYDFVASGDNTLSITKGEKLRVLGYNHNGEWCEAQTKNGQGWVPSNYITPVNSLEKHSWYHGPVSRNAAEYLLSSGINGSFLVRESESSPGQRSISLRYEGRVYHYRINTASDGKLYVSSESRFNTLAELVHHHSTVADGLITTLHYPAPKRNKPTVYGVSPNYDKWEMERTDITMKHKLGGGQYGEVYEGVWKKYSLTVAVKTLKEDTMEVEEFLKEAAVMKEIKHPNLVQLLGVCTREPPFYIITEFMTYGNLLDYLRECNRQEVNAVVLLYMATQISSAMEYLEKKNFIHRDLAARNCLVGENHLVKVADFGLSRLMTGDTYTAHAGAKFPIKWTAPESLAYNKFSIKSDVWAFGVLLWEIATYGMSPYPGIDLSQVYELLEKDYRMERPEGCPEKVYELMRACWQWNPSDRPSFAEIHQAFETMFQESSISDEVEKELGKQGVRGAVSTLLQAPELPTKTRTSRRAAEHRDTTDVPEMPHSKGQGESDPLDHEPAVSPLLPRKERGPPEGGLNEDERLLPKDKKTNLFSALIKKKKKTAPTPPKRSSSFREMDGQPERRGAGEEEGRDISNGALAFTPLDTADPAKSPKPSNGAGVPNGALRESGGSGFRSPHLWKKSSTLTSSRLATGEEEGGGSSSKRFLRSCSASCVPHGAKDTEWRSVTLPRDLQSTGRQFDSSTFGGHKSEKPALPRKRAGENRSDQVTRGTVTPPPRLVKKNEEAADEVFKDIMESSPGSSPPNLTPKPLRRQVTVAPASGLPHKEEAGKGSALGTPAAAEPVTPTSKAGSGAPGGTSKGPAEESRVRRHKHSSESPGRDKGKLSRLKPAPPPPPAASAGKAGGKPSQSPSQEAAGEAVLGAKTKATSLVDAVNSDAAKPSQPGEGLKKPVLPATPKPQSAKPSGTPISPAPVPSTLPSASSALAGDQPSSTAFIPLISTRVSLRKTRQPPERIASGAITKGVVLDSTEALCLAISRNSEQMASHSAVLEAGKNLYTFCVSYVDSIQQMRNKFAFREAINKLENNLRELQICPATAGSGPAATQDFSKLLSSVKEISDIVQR
Sequence of ALK tyrosine kinase receptor (Q9UM73 whole entry): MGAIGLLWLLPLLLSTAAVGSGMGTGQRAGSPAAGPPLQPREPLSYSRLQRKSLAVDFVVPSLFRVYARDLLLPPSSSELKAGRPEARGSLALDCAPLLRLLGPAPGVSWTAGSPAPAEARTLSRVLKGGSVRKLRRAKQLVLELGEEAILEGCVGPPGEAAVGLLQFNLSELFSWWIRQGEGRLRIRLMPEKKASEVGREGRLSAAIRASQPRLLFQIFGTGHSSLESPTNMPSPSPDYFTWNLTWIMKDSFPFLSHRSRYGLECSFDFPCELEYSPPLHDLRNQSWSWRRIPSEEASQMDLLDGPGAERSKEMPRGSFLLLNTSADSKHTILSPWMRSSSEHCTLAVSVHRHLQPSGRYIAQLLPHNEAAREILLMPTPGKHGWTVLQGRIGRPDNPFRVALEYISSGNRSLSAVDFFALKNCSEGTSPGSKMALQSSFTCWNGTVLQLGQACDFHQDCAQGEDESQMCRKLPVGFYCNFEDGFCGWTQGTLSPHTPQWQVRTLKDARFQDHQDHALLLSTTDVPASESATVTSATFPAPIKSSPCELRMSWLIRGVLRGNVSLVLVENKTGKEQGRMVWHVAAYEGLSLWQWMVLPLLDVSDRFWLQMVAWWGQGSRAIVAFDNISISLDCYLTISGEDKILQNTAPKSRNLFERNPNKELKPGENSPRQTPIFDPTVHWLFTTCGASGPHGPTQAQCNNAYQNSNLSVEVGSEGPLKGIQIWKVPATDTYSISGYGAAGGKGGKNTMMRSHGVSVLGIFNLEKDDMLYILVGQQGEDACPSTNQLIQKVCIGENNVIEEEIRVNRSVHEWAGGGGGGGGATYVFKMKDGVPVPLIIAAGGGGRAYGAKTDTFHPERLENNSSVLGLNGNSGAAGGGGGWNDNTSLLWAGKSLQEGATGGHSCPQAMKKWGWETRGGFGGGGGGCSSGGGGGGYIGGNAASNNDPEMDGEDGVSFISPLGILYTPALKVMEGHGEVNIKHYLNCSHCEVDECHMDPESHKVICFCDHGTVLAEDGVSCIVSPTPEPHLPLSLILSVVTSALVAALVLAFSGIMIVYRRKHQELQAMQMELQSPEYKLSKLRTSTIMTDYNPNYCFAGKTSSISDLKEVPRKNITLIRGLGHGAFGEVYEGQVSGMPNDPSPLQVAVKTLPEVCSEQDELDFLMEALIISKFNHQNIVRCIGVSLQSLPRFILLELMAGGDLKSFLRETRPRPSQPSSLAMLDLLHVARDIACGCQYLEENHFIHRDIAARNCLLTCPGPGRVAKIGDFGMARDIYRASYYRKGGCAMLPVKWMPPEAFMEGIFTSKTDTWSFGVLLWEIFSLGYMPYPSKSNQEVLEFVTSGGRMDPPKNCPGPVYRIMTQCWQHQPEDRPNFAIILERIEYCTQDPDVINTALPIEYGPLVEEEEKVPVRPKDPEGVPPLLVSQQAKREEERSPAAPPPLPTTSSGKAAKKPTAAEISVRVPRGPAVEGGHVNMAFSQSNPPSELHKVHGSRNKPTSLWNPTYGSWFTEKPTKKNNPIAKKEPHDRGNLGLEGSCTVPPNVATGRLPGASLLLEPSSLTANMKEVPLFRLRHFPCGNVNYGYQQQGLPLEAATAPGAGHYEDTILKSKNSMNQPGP
Sequence of Mitogen-activated protein kinase 14 (Q16539 whole entry): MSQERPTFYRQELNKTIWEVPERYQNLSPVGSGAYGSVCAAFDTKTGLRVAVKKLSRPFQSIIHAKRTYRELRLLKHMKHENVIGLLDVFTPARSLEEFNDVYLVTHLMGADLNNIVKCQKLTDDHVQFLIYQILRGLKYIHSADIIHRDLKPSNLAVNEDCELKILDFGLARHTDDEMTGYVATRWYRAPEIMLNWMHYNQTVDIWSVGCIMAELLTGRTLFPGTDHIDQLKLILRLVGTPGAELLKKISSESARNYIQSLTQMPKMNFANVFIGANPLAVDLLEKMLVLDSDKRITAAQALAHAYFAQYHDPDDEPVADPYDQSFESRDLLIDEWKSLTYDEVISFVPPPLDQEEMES
Sequence of Mitogen-activated protein kinase 8 (P45983 whole entry): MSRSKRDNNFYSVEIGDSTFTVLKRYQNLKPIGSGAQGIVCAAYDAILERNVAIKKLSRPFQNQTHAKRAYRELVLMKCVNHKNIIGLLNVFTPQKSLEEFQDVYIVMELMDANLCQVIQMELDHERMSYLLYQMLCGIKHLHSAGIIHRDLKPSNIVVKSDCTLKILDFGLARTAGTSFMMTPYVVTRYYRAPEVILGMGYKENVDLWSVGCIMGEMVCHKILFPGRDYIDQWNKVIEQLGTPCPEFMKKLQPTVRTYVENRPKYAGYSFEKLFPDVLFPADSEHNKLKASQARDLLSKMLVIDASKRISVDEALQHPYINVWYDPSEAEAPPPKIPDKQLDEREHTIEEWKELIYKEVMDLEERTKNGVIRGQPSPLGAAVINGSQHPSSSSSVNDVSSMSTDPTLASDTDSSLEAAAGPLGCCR
Sequence of Hepatocyte growth factor receptor (P08581 whole entry): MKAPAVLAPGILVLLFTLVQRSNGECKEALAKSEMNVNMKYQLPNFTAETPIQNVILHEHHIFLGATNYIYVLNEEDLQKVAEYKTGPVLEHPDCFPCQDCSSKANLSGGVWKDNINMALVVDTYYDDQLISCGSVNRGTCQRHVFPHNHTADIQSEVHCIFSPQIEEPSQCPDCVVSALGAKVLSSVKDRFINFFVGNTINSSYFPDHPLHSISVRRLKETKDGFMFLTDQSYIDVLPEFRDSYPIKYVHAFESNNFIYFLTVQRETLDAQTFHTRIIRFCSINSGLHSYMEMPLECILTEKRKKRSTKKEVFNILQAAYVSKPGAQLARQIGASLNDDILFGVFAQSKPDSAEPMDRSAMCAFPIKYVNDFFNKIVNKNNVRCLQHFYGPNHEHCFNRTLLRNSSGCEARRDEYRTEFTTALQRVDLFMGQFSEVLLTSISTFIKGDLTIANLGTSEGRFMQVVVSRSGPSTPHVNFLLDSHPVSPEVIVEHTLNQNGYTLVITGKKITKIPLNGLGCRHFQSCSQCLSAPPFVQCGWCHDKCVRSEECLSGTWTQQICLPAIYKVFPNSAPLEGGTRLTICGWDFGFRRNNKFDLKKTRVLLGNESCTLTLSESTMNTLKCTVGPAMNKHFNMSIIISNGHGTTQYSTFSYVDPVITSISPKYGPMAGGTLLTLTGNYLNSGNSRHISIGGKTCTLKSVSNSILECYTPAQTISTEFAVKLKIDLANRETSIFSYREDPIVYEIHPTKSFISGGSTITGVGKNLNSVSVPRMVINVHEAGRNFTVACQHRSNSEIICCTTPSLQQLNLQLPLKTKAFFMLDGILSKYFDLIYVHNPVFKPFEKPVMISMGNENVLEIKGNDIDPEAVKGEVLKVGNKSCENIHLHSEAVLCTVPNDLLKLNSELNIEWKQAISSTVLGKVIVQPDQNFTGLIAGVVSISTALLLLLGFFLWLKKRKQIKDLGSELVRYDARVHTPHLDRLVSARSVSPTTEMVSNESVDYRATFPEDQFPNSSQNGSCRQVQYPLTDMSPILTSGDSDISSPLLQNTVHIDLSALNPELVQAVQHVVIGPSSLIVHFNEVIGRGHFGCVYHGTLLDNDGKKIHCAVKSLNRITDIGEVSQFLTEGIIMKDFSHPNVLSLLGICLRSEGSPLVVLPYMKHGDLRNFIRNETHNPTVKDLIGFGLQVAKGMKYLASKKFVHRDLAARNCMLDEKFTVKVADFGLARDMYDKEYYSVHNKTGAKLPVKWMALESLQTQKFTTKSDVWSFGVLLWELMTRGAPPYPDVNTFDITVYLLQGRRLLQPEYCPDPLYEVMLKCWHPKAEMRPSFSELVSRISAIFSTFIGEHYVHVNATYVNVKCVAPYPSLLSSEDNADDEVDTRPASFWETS

In the case of `CC[C@@H]1CN(C(=O)NCC(F)(F)F)C[C@@H]1c1cnc2cnc3[nH]ccc3n12` [UPADACITINIB], the half-maximal inhibitory concentration (IC50) in experiment [1] is greater than 10 µM; in experiment [2], 5.5 µM; on Aurora kinase B, 5.5 µM; in experiment [3], greater than 10 µM; in experiment [4], greater than 10 µM; in experiment [5], greater than 10 µM. The IC50 at CDK8/Cyclin C was greater than 10 µM; on CDK7/Cyclin H/MNAT1, greater than 10 µM; in experiment [6], greater than 10 µM; in experiment [7], 7.9 µM; in experiment [8], 1.5 µM; in experiment [9], 10 µM. Moreover, the IC50 in experiment [10] was greater than 10 µM; in experiment [11], greater than 10 µM; in [12], greater than 10 µM; in [13] it was 4.5 µM; in [14] it was greater than 10 µM; in experiment [15], 9.6 µM. The molecule also came in with an IC50 in [16] greater than 10 µM.

The IC50 is the concentration needed to halve the response being measured. Lower therefore signals inhibition by little substance.
